Laboratory results published in publication PMC7708037, “Targeting OGG1 arrests cancer cell proliferation by inducing replication stress” (Nucleic Acids Research, 2020).

Legend:
[1] = design: method as in PMID 30442810; conditions: cited from earlier work
[2] = system: A3 shNT cells transcriptome; test: RNA-sequencing and Gene Set Enrichment Analysis; assay type: cell-based, human; conditions: 10 μM, 24 h vs DMSO
Protocol: To extract bulk RNA from cells, the pellets were resuspended in 500 μl of TRI Reagent. After 5 min, 100 μl of chloroform was added and the tubes were shaken by hand for one minute. After 15 min incubation, the samples were centrifuged at 12 000 × g for 15 min at 4°C. 300 μl of the aqueous phase were then mixed thoroughly with 300 μl of Isopropanol, 30 μl of 3M Sodium Acetate and 1 μl of Pellet Paint (Merck 69049) and incubated over night at −20°C. The following day, the samples were centrifuged at 20 000 × g g for 30 min and the pellets washed twice with 600 μl of 70% ethanol. After drying, the pellets were resuspended in 15 μl of Elution Buffer and the concentration of RNA was measured using the Qubit RNA High Sensitivity Assay (Thermo Fischer Q32852) according to the manufacturer's instructions.
After diluting the samples, 2 ng of RNA were used as input for the Smart-seq2 RNA-sequencing protocol ([41]) and 50 bp single ends were sequenced on an Illumina HiSeq 3000 sequencer. Reads were mapped to the ENSEMBL human transcriptome GRCh37 using Tophat 2.1.1 to generate the read count matrix.
Differential expression analysis was performed with DESeq2 (v. 1.26.0) ([42]). […] For Gene Set Enrichment Analysis only genes with a mean expression >5 normalized counts as determined by DESeq2 were taken into account. […]
Figure 6. […] Only genes with a mean normalized count >5 were analyzed. […]

[3] = system: A3 OGG1-shRNA cells; test: Off-target evaluation in OGG1 knockdown A3 cells; assay type: cell-based, human
Protocol: Figure 4. Anticancer properties overlap between OGG1 loss and OGG1 inhibitors. (A) Viability of T-cell acute […] leukemia cell lines treated for 5 days with the indicated doses TH5487. Data are average ±SD of independent experiments (A3, n = 5; Jurkat, n = 3; MOLT-4, n = 4; CCRF-CEM, n = 3). (B) Relative cell numbers and (C) viability (%) for A3 cells treated for 5 days with 10 μM TH5487. Data are average ±SD of six replicates from three independent experiments. (D) Induction of apoptosis in A3 cells treated for 72 h TH5487 and stained for Annexin V. Data are average ±SD of three independent experiments. (E) A3 cells transfected with shRNA targeting OGG1 were treated with doxycycline for 6 days and stained for Annexin V. Data are average ±SD of two independent experiments. (F) Scheme for recovery experiment in which A3 OGG1-shRNA cells or A3 cells were silenced or inhibited for 6 days with doxycycline (200 nM) or TH5487 (10 μM). […] Statistical significance was determined using unpaired, two-sided t-tests (*P < 0.05, **P < 0.01, ***P < 0.001, ****P < 0.0001, ns, non-significant). […]
Statistical significance was determined using unpaired, two -sided T-tests (ns, non-significant, *, P<0.05, **, P<0.01, ***, P<0.001 and ****, P<0.0001) . […] D. Comparative bar graph with quantification from two independent Western blots. […]

Structure (SMILES): O=C(Nc1ccc(I)cc1)N1CCC(n2c(=O)[nH]c3c(Br)cccc32)CC1 [TH5487]
- Stability in mouse serum [1]: stable
- 'DNA replication' gene signature (GSEA) [2]: one of the most downregulated gene signatures
- Additional toxic effect in combination with doxycycline ([3]; A3 sh2, 6 days): additional toxic effect
- Additional toxic effect in OGG1 knockdown cells ([3]; doxycycline 5 days, then additional 48 h with 10 μM): no significant additional toxic effect
